Literature values as cited in PMC4877185 (Molecular imaging and biology : MIB : the official …, 2016).

Key:
GLP-1R [1] = details: read-out: cAMP EC50; unlabeled conjugates, GLP-1R agonist
GLP-1R [2] = details: greater affinity than truncated antagonist exendin-(9–39)-amide

Substance	EC50 (GLP-1R [1]) [nM]	Binding affinity for GLP-1R relative to exendin-(9–39)-amide (GLP-1R [2]) [fold]
DO3A-VS-Cys^40-exendin-4	0.027	–
Exendin-4	–	~10
